One compound from patent EP0919233A1, “THERAPEUTIC AGENT FOR KIDNEY DISEASES” (KYOWA HAKKO KOGYO KABUSHIKI KAISHA, priority 1996, dated 1997) can be followed below.

Holding throughout (type): in vivo
The subject of data set [1] is dd-strain male mice. The data set can be described thus: Acute Toxicity Test (minimum lethal dose). The conditions noted are these: three mice per group, mortality observed seven days after administration. Here is the method: A test compound was orally or intraperitoneally administered to groups of dd-strain male mice weighing 20 ± 1 g, each group consisting of three mice. […] The MLD was >1000 mg/kg for oral administration of Compound 10 and was >100 mg/kg for intraperitoneal administration of Compound 10.

The subject of data set [2] is Masugi Nephritis. The data set can be described thus: Effect on Increase of Albumin Excretion in Masugi Nephritis. As to conditions: ddY-strain male mice, 1 mg/kg orally once a day from the previous immunization, 24 hr urine four weeks after second NT injection, mean ± standard error, n=11; control group 134 ± 9, normal group 85 ± 5. Here is the method:
Mouse nephrotoxin (hereinafter referred to as NT) was prepared according to the method of Ito, et al. [The Japanese Journal of Nephrology, 23, 25-36 (1981)]. That is, glomerular basement membrane (hereinafter referred to as GBM) was isolated from mouse kidney and digested with trypsin (Sigma). The digested GBM was subjected to ultracentrifugation under cooling, and the supernatant was dialyzed against distilled water, followed by lyophilization. The lyophile product was intracutaneously injected as an antigen into four foot pads of a rabbit together with Freund's complete adjuvant (Iatron; hereinafter referred to as FCA) once a week for 4 weeks for immunization. The whole blood was drawn from the immunized rabbit, and serum was separated and inactivated at 56°C for 30 minutes to prepare NT.
In this test, ddY-strain male mice weighing 29-36 g were used. For previous immunization, 0.25 ml of an FCA emulsion containing 0.25 mg of rabbit immunoglobulin-globulin (IgG, Sigma) was intraperitoneally injected into mice. Nephritis was induced by intravenous injection of 0.075 ml of NT through the tail vein 4 and 11 days after the previous immunization. […] The supernatant was analyzed for urinary albumin content using an autoanalyzer (Olympus). […]
The results are shown in Table 5 as the means ± standard error of each group consisting of 11 mice. Statistical significance was evaluated by Student's t-test.

For data set [3], the system named is Diabetic Nephropathy. The data set can be described thus: Effect on Increase of Albumin Excretion in Diabetic Nephropathy (streptozotocin-induced). The conditions noted are these: STZ-diabetic ddY-strain male mice, 24 hr urine twelve weeks after STZ, mean ± standard error, control group 333 ± 30, normal group 80 ± 3. Here is the method: In this test, ddY-strain male mice weighing 25-28 g were used. Diabetes was induced according to the method of Tsuchida, et al. [Jin To Toseki (Kidney and Dialysis), 31, 363-366 (1991)]. That is, streptozotocin (5 mg/ml, Sigma; hereinafter referred to as STZ) dissolved in 0.05 M citrate buffer was intravenously injected into mice through the tail vein at a dose of 10 ml/kg. On the fourth day after the STZ administration, 30 µl of blood was collected from the tail vein of the mice and the blood glucose was determined using Glutestsensor (Sanwa Kagaku). The animals were divided into three groups based on the blood glucose level. Twelve weeks after the STZ administration, each mouse was put into a metabolic cage and received oral administration of 0.5 ml/10 g of distilled water twice at an interval of 12 hours. Urine was collected for 24 hours, and after measurement of the volume, the urine was centrifuged under cooling (3000 rpm, 4°C) for 5 minutes. The supernatant was analyzed for urinary albumin content using an autoanalyzer (Olympus). A test compound was orally administered once a day for 11 weeks, starting on the fifth day after the STZ administration. […] Statistical significance was evaluated by Aspin-Welch's test for the difference between the control group and the normal group and by Steel's test for the difference between the control group and the test compound-administered group.

In the case of `CCOc1cc2nc(N3CCOCC3)nc(N3CCC(n4c(=O)c5cc(C)ccc5n(C)c4=O)CC3)c2cc1OCC.Cl` [Compound 10, 3-[1-(6,7-Diethoxy-2-morpholino-4-quinazolinyl)-4-piperidinyl]-1,2,3,4-tetrahydro-1,6-dimethyl-2,4-dioxoquinazoline hydrochloride], the “minimum lethal dose (MLD)” value is on record as greater than 100 mg/kg in data set [1] (intraperitoneal administration) and greater than 1000 mg/kg in data set [1] (oral administration). In addition, the figures for the “Urinary Albumin Content” value in data set [2], in data set [3] (1 mg/kg orally once a day for 11 weeks) and in data set [3] (10 mg/kg orally once a day for 11 weeks) were 96 ± 7 mg/kg/24 hr, 244 ± 16 mg/kg/24 hr and 200 ± 13 mg/kg/24 hr, respectively.
